Reference: ChEMBL document CHEMBL4422622, “Identification of Mineralocorticoid Receptor Modulators with Low Impact on Electrolyte Homeostasis but Maintained Organ Protection” (J Med Chem, 2019)
In brackets after ≈: the same amount, converted by molar mass.

Key:
[1] = Octanol-water partitioning co-efficient, log D of the compound at pH 7.4 by LC/MS/MS analysis; assay type: physicochemical
[2] = Kinetic solubility of compound at pH 7.4 after 24 hrs by shake-flask assay; assay type: physicochemical; conditions: buffer, read-out: -log(solubility) (converted)
[3] = biological target: T1, Progesterone receptor (Homo sapiens, UniProt P06401); experiment: Binding affinity to recombinant human progesterone receptor LBD by fluormone PL red-fluorescence polarization assay
T1 sequence (P06401 whole entry): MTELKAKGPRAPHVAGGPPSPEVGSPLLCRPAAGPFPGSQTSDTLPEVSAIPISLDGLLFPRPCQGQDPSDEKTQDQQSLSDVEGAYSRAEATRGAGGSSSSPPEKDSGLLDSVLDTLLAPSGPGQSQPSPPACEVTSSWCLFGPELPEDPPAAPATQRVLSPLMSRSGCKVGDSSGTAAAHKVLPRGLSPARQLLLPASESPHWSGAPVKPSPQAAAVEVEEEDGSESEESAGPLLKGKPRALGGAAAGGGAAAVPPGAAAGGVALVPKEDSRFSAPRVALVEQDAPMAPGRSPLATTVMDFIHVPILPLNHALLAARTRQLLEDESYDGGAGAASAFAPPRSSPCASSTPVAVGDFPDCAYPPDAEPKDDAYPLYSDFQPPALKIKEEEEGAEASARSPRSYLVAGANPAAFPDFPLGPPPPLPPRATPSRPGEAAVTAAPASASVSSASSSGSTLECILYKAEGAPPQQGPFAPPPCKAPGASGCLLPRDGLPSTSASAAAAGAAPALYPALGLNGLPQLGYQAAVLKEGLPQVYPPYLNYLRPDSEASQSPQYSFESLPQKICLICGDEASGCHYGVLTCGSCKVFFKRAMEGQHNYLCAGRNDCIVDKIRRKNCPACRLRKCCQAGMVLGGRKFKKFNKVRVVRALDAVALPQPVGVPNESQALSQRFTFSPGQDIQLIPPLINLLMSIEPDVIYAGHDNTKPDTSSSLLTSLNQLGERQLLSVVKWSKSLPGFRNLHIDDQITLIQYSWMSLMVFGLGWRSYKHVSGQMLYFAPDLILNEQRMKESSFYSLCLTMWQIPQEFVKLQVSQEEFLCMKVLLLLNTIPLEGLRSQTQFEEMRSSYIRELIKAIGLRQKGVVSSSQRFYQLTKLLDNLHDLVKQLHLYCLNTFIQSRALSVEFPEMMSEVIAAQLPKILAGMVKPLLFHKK

[4] = Intrinsic clearance in human liver microsomes at 1 uM measured up to 30 mins in presence of NADPH by LC-MS/MS analysis; assay type: ADME, Microsome; conditions: read-out: CLH
[5] = biological target: T2, Mineralocorticoid receptor (Homo sapiens, UniProt P08235)
T2 sequence (P08235 whole entry): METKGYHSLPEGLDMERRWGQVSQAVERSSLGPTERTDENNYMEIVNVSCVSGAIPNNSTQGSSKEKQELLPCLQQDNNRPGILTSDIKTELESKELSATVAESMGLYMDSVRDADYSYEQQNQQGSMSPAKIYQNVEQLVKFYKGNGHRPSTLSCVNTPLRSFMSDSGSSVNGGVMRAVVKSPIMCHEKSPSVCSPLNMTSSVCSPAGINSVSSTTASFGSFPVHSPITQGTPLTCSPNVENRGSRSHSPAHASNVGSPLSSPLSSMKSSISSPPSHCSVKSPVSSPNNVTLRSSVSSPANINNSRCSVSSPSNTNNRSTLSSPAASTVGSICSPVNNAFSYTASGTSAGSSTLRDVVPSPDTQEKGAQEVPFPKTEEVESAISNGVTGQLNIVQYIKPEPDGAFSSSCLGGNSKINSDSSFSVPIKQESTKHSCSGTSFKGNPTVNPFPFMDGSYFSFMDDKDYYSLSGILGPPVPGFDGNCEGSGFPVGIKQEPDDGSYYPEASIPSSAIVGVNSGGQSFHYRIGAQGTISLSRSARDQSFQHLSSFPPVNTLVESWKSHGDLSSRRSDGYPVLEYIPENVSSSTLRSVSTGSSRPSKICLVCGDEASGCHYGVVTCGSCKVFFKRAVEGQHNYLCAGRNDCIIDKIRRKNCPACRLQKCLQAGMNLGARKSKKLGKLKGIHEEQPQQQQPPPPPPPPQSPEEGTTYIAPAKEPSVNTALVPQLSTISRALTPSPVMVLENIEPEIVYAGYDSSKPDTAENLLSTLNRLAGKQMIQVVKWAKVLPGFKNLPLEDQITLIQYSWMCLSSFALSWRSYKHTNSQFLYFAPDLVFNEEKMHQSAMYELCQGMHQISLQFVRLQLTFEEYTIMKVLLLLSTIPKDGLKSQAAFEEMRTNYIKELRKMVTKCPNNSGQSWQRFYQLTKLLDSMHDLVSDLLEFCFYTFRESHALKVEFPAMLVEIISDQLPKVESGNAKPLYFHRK
Description: Displacement of [3H]-aldosterone to human mineralocorticoid receptor LBD by radiometric binding assay

[6] = biological target: T3, Glucocorticoid receptor (Homo sapiens, UniProt P04150)
T3 sequence (P04150 whole entry): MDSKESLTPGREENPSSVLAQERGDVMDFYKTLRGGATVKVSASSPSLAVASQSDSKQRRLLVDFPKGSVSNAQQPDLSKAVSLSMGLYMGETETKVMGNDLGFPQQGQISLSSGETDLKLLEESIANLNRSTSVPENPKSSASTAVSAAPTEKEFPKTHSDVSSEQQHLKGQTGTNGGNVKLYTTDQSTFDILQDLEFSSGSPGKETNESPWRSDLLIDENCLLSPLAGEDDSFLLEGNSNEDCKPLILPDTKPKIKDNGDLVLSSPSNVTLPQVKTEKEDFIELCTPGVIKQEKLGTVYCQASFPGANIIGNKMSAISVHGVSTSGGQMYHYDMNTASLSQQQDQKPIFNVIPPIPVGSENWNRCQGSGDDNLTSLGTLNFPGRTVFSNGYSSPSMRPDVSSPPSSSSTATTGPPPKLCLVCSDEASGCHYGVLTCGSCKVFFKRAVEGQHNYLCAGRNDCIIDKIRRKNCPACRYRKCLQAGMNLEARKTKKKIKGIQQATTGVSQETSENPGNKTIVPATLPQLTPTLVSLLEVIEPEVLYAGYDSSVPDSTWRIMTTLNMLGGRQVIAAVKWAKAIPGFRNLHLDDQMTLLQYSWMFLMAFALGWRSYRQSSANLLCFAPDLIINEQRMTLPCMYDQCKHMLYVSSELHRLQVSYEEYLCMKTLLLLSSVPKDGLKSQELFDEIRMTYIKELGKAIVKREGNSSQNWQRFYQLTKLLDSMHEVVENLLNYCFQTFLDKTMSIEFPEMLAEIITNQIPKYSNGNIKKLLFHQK
Description: Binding affinity to recombinant human GR LBD by fluormone GS red-fluorescence polarization assay

[7] = biological target: T2, Mineralocorticoid receptor; remark: listed apart in the source
Description: Antagonist activity at gal4-fused human mineralocorticoid receptor LBD expressed in UAS-MR-bla HEK293 cells by luciferase reporter gene assay

[8] = tested on: Rattus norvegicus; experiment: Induction of hyperkalemia in Sprague-Dawley rat fed on low salt diet for 72 hrs assessed as increase in Na+/K+ ratio in urine administered via oral gavage after 8 hrs; assay type: organism-based; conditions: in vivo
[9] = Fraction unbound in Han Wistar rat plasma at 1 uM after 4 hrs by LC/MS/MS analysis; assay type: ADME, cell-free
[10] = Intrinsic clearance in Han Wistar rat hepatocytes assessed per million cells at 1 uM after 4 hrs by LC/MS/MS analysis; assay type: ADME, cell-based, Hepatocyte; conditions: read-out: CLH
[11] = Volume of distribution at steady state in Han Wistar rat at 1.2 mg/kg, iv by LC-MS/MS analysis; assay type: ADME, organism-based; conditions: in vivo, read-out: Vdss
[12] = Clearance in Han Wistar rat at 1.2 mg/kg, iv by LC-MS/MS analysis; assay type: ADME, organism-based; conditions: in vivo
[13] = Terminal half life in Han Wistar rat at 1.2 mg/kg, iv by LC-MS/MS analysis; assay type: ADME, organism-based; conditions: in vivo, read-out: beta t1/2 (converted)
[14] = Oral bioavailability in Han Wistar rat at 2.1 mg/kg by LC-MS/MS analysis; assay type: ADME, organism-based; conditions: in vivo

Compound	logD [1]	solubility kinetic at 24 h [2] [µM]	Ki [3] [µM]	microsomal CLint at 1 µM [4] [µL/min/mg]	Ki [5] [µM]	Ki [6] [µM]	IC50 [7] [µM]	fraction unbound at 4 h, 1 µM [9]	hepatocyte CLint at 1 µM [10] [µL/min/1e6 cells]	Vd [11] [L/kg]	clearance [12] [mL/min/kg]	half-life [13] [h]	bioavailability [14] [%]	Activity [8]
CC(C)C[C@H]1COc2cc(F)ccc2N1C(=O)c1ccc2c(c1)NC(=O)CC2	3.6	79.4 (≈ 30.4 µg/mL)	> 50.1	> 300	1	12.6	2.51							
CC(C)C[C@H]1COc2cc(F)ccc2N1C(=O)c1ccc2c(c1)NC(=O)CO2	3.8	39.8 (≈ 15.3 µg/mL)	2.51	> 300	0.002	0.0501	0.0631							
C[C@H]1COc2cccnc2N1C(=O)c1ccc2c(c1)NC(=O)CO2	1.3	1000 (≈ 325 µg/mL)	> 50.1	6	1.26	> 15.8	> 10							
O=C1COc2ccc(C(=O)N3CCCc4ccccc43)cc2N1	2.4	50.1 (≈ 15.5 µg/mL)		27	0.631		2							
C[C@@H]1CCc2cc(F)ccc2N1C(=O)c1ccc2c(c1)NC(=O)CO2	2.9	100 (≈ 34 µg/mL)		70	6.31		> 10							
C[C@@H]1COc2cc(F)ccc2N1C(=O)c1ccc2c(c1)NC(=O)CO2	2.7		> 50.1	11										
COC(=O)[C@@H]1CC2=CC(=O)CC[C@]2(C)[C@@]23O[C@@H]2C[C@@]2(C)[C@@H](CC[C@@]24CCC(=O)O4)[C@H]13 [EPLERENONE]	0.8	1000 (≈ 414 µg/mL)		9				0.76	5	1	17	1.3	16	Toxic
O=C1COc2ccc(C(=O)N3CCOc4ccccc43)cc2N1	2	15.8 (≈ 4.92 µg/mL)		4	1		3.16							

Further lines, with some results ahead:

logD [1]	solubility kinetic at 24 h [2] [µM]	Ki [3] [µM]	microsomal CLint at 1 µM [4] [µL/min/mg]	Ki [5] [µM]	Ki [6] [µM]	IC50 [7] [µM]	fraction unbound at 4 h, 1 µM [9]	hepatocyte CLint at 1 µM [10] [µL/min/1e6 cells]	Vd [11] [L/kg]	clearance [12] [mL/min/kg]	half-life [13] [h]	bioavailability [14] [%]	Compound	Activity [8]
1.8	1000 (≈ 372 µg/mL)	25.1	15	0.2	1.26	0.501							O=C1COc2ccc(C(=O)N3c4ccc(F)cc4OC[C@@H]3CCO)cc2N1	
3.7	2 (≈ 0.744 µg/mL)	> 50.1	40	> 10	> 15.8	> 10							O=C1COc2ccc(C(=O)N3c4ccc(Cl)cc4C[C@@H]3CCO)cc2N1	
2.9	126 (≈ 42.8 µg/mL)	> 50.1	190	0.126	2	0.794							C[C@H]1CCc2cc(F)ccc2N1C(=O)c1ccc2c(c1)NC(=O)CO2	
0.2	50.1 (≈ 18.6 µg/mL)	> 50.1	12	> 10	> 15.8	> 10							NCC[C@H]1COc2cc(F)ccc2N1C(=O)c1ccc2c(c1)NC(=O)CO2	
-0.5	1000 (≈ 403 µg/mL)	> 50.1	< 3	0.158	5.01	> 10							O=C(O)C[C@H]1COc2cc(Cl)ccc2N1C(=O)c1ccc2c(c1)NC(=O)CO2	
